The values that follow come from patent publication EP2439195B1, “NAPHTHALENE CARBOXAMIDE DERIVATIVES AS INHIBITORS OF PROTEIN KINASE AND HISTONE DEACETYLASE, PREPARATION METHODS AND USES THEREOF” (Shenzhen Chipscreen Biosciences, Ltd., priority 2009, dated 2010).

For experiment [1], the system named is HCT-8. Description: Tumor cell proliferation (MTS), HCT-8. The experiment is classed as cell-based. The settings on record: Homo sapiens; HCT-8, 72 hours; read-out: Gl50 µM in HCT-8. As for the experimental part: (§1) Tumor cells were trypsinized and plated into 96-well plates at 3,000 per well and incubated in complete medium with 10% FBS for 24 hours. Compounds to be tested and vehicle control were added, and the final concentration of compound is in the range of 100 nmol/L to 100 µmol/L. The compounds were incubated for 72 hours in complete medium. The MTS reagent (Promega) was added according to the instruction, incubated for 2 hours at 37°C in CO2 incubator. Then absorbance at 490nm is read using an ELISA plate reader.

For experiment [2], the target named is T1, human PDGFRβ (Homo sapiens, UniProt P09619).
T1 construct: expressed in transfected cells
T1 sequence (P09619 33-1106): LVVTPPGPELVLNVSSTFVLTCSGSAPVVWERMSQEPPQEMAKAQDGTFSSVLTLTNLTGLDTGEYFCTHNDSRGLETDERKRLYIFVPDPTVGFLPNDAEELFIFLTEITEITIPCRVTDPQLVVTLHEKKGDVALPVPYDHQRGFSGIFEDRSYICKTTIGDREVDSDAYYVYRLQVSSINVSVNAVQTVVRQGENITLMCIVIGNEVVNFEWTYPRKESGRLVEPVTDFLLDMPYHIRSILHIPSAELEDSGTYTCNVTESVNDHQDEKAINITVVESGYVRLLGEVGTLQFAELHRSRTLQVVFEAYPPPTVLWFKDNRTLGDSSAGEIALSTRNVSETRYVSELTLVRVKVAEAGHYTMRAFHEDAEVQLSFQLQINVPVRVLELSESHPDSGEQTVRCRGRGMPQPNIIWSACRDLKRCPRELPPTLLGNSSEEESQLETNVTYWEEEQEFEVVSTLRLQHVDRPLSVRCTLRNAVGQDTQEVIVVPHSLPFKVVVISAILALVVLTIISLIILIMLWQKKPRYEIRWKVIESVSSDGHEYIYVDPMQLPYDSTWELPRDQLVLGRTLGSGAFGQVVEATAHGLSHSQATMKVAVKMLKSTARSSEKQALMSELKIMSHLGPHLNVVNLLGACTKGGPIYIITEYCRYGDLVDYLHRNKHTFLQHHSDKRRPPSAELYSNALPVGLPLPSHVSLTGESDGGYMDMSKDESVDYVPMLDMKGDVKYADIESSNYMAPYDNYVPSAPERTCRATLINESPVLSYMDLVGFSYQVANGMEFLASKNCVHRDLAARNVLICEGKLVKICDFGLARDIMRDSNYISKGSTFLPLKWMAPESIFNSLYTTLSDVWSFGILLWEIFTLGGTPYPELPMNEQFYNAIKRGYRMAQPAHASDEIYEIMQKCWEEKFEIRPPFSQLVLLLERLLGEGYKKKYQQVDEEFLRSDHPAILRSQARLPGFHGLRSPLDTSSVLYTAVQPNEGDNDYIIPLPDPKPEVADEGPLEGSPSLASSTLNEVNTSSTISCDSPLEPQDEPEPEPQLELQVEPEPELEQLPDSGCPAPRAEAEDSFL
Description: PDGF dependent cell proliferation (MTS). Type of experiment: cell-based. As for the experimental part: NIH-3T3 mouse fibroblasts cell line engineered to stably express human PDGFRβ was constructed and used to evaluate PDGF dependent cell proliferation. PDGFRβ NIH-3T3 cells were plated into 96-well plates at 5,000 per well and incubated overnight with serum-free medium after 24 hours. Compounds to be tested and PDGF BB (50ng/ml) were added and incubated for 72 hours in serum-free medium. The effects on proliferation were determined by MTS method (Promega) according to the instruction. Incubation was performed for 2 hours at 37°C in CO2 incubator, and absorbance at 490nm was measured using an ELISA plate reader.

For experiment [3], the system named is A549. Description: Tumor cell proliferation (MTS), A549. The experiment is classed as cell-based. The conditions noted are these: Homo sapiens; A549, 72 hours; read-out: Gl50 µM in A549. As to the method:
as §1

The subject of experiment [4] is A-498. Description: Tumor cell proliferation (MTS), A-498. The experiment is classed as cell-based. The conditions noted are these: Homo sapiens, A498; A-498, 72 hours; read-out: Gl50 µM in A-498. As for the experimental part: as §1
The subject of experiment [5] is total HDAC enzyme. Description: In vitro total HDAC enzyme activity (HDAC Fluorimetric Assay/Drug Discovery Kit, HeLa cell nuclear extract). Type of experiment: biochemical. As to the method: The in vitro total HDAC enzyme activity was determined by HDAC Fluorimetric Assay/Drug Discovery Kit (BIOMOL) according to manufacture's instruction. The principle of the experiment is as follows: under the action of histone deacetylase (in the experiment, HeLa cell nuclear extract, which was rich in a variety of subtypes of HDAC, was used), an acetyl group is removed from a special substrate Fluor de Lys, thus the free amino is exposed. Upon Developer is added, the substrate will produce fluorescence. For the fluorescence, excitation wavelength is 360nm, and emission wavelength is 460nm. More fully the substrate deacetylated, more higher the fluorescence induced. In the absence of inhibitors, the fluorescence value is taken as the control; when inhibitor is existed, fluorescence value induced will be reduced, while in the case no enzyme is existed (corresponding to the completely inhibition of enzyme activity) the fluorescence value is blank. Generally, after suppression the fluorescence values will be between the control and blank. When analysis is made, blank will be used as 0, and the control will be used as 1. Smaller value means higher inhibitory activity. 1. Add Assay buffer, diluted trichostatin A and test inhibitor to appropriate wells of the microtiter plate. Following table lists the amounts used for each regent of various assay types.
2. Add diluted HeLa nucleoprotein extract to all wells except those that are marked as "blank". 3. Allow diluted Fluor de Lys™ Substrate and the samples in the microtiter plate to equilibrate to 25°C. 4. Initiate HDAC reactions by adding diluted substrate (25 µl) to each well and mixing thoroughly. 5. Allow reactions to proceed for 30 minutes and then stop them by addition of Fluor de Lys™ Developer (50 µl). Incubate plate at room temperature (25°C) for 10-15 min. 6. Read fluorescence of samples on a microtiter-plate reading fluorimeter at a excitation wavelength of 369 nm and a emitted wavelength of 451 nm.

In experiment [6] the test system is MCF-7. Description: Tumor cell proliferation (MTS), MCF-7. The experiment is classed as cell-based. The settings on record: Homo sapiens, MCF7; MCF-7, 72 hours; read-out: Gl50 µM in MCF-7. As for the experimental part:
as §1

Experiment [7] concerns Bel-7402. Description: Tumor cell proliferation (MTS), Bel-7402. Type of experiment: cell-based. The conditions noted are these: Homo sapiens; Bel-7402, 72 hours; read-out: Gl50 µM in Bel-7402. As to the method:
as §1

Experiment [8] relates to Class I HDAC. Description: HDAC subtype selectivity reporter gene assay (P21 reporter, HeLa cells). The experiment is classed as cell-based. The conditions noted are these: Homo sapiens, read-out: Class I HDAC (P21 reporter assay) Fold Induction at 10µM. As for the experimental part:
Different HDAC subtypes can bind with different transcriptional factors and involve in expression regulation of various genes. Suitable regulation elements for transcriptional factors are selected to construct reporter genes, which can be used to evaluate the selective inhibition of inhibors on HDAC subtypes. Briefly, HeLa cells were seeded in 96-well plates the day before transfection to give a confluence of 50-80% when transfection. Cells were transfected with one of reporter gene plasmid containing a p21-promoter sequence or response element upstream of a luciferase gene construct using FuGene6 transfection reagent according to the manufacturer's instruction (Roche). For normalizing the transfection efficiency, a GFP expression plasmid was cotransfected. After 24 hours compounds or the vehicle control (DMSO) were added. 24 hours later the cells were harvested and lysed, and the amount of the luciferase was evaluated using luciferase assay kits (Promega) according to the manufacturer's instructions.
(In general: In a reporter assay the amount or activity of a reporter protein is the signal.)

In experiment [9] the test system is HUVEC cells. Kind of experiment: VEGF dependent cell proliferation (MTS). The conditions noted are these: Homo sapiens, VEGF 165 (50ng/ml), 72 hours, serum-free medium, read-out: Gl50 nM (VEGF ligand-dependent cell proliferation). The experiment is classed as cell-based. As for the experimental part: HUVEC cells were plated into 96-well plates at 6,000 per well and after 24 hours incubated with serum-free medium for 2 hours. Compounds to be tested and VEGF 165 (50ng/ml) were added and incubated for 72 hours in serum-free medium. The effects on cell proliferation were determined by MTS method (Promega) according to the instruction. Incubation was performed for 2 hours at 37°C in CO2 incubator, and absorbance at 490nm was determined using an ELISA plate reader.

[10] abbreviates: PDGFRβ NIH-3T3 cells, PDGF BB (50ng/ml), 72 hours, serum-free medium; read-out: Gl50 nM (PDGF ligand-dependent cell proliferation).

Where two headings read alike, the source gives them in different places.

Turning to `COc1cc2ncnc(Oc3ccc4c(C(=O)Nc5ccc(F)cc5N)cccc4c3)c2cc1OC` [Compound 17, N-(2-amino-4-fluorophenyl)-6-(6,7-dimethoxyquinazolin-4-yloxy)-1-naphthamide], the IC50 in experiment [1] was 3 µM; in experiment [2] (setting [10]), 0.04 µM; in experiment [3] it was 30 µM; in [4] it was 30 µM; in [6] it was 30 µM; in experiment [7] it was 30 µM. Moreover, the IC50 in experiment [9] came out at 0.003 µM. Besides, the “% inhibition of total HDAC enzyme activity at 30µM” value (“% inhibition” below) in experiment [5] worked out at 22.5%. For the same compound, in experiment [8] (10µM, HeLa cells, 24 hours), the fold induction at 10 µM was found to be 1.1.
With `COc1cc2nccc(Oc3ccc4c(C(=O)NCc5ccc(C(=O)Nc6ccccc6N)cn5)cccc4c3)c2cc1OC` [Compound 38], the IC50 is 8 µM in experiment [1]; 0.074 µM in experiment [2] (read-out: Gl50 nM (PDGF ligand-dependent cell proliferation); PDGFRβ NIH-3T3 cells, PDGF BB (50ng/ml), 72 hours, serum-free medium); 30 µM in [3]; 6.9 µM in experiment [4]; 9.4 µM in experiment [6]; 30 µM in experiment [7]. The IC50 in experiment [9] was 0.025 µM. In addition, in experiment [5], the “% inhibition” value amounted to 39.3%. Besides, the fold induction at 10 µM in experiment [8] (HeLa, 24 h) was 3.1.
Take `COc1ccc2c(Oc3ccc4c(C(=O)Nc5ccc(F)cc5N)cccc4c3)ccnc2c1` [Compound 32, N-(2-amino-4-fluorophenyl)-6-(7-methoxyquinolin-4-yloxy)-1-naphthamide]: the IC50 was 6.6 µM in [1]; 0.02 µM in [2] (setting [10]); 8.3 µM in experiment [3]; 7.5 µM in [4]; 15.9 µM in [6]; 17.3 µM in experiment [7]. For the same compound, the IC50 in experiment [9] was 0.002 µM. In addition, the “% inhibition” value in [5] was 21.7%. Further, the fold induction at 10 µM in [8] (10µM, HeLa cells, 24 hours) stood at 1.8.
`COc1cc2nccc(Oc3ccc4c(C(=O)Nc5ccc(F)cc5N)cccc4c3)c2cc1OC` [Compound 36, N-(2-amino-4-fluorophenyl)-6-(6,7-dimethoxyquinolin-4-yloxy)-1-naphthamide]: the IC50 in [1] amounted to 4.1 µM; in experiment [2] (setting [10]), 0.003 µM; in [3], 7.4 µM; in [4], 4.2 µM; in experiment [6], 8.9 µM; in experiment [7], 12.1 µM. Further, in experiment [9], the IC50 came out at 0.002 µM. Also, the “% inhibition” value in [5] worked out at 14.4%. Moreover, in experiment [8] (10µM, HeLa cells, 24 hours), the fold induction at 10 µM stood at 1.2.
Consider `COc1cc2nccc(Oc3ccc4c(C(=O)Nc5ccccc5N)cccc4c3)c2cc1OC` [Compound 35, N-(2-aminophenyl)-6-(6,7-dimethoxyquinolin-4-yloxy)-1-naphthamide], for which the IC50 was 8.9 µM in [1]; 0.005 µM in experiment [2] (setting [10]); 7.7 µM in experiment [3]; 9.1 µM in [4]; 13.3 µM in experiment [6]; 19.5 µM in experiment [7]. Further, the IC50 in experiment [9] is 0.001 µM. For the same compound, the “% inhibition” value in experiment [5] was 19.3%. Also, the fold induction at 10 µM in experiment [8] (10µM, HeLa cells, 24 hours) is 1.2.
In the case of `COc1cc2ncnc(Oc3ccc4c(C(=O)Nc5ccccc5N)cccc4c3)c2cc1OC` [Compound 16, N-(2-aminophenyl)-6-(6,7-dimethoxyquinazolin-4-yloxy)-1-naphthamide], the IC50 in [1] is 12.3 µM; in experiment [2] (setting [10]), 0.048 µM; in experiment [3], 30 µM; in experiment [4] it was 30 µM; in experiment [6], 30 µM; in [7] it was 30 µM. Further, the IC50 in experiment [9] amounted to 0.003 µM. Further, the “% inhibition” value in experiment [5] came to 8.6%. For the same compound, in experiment [8] (10µM, HeLa cells, 24 hours), the fold induction at 10 µM worked out at 1.3.
